# Data taken from patent publication EP0908457B1, “3-(1,2-benzisothiazol- and isoxazol-5-Y1)-2,4(1H,3H)-pyrimidinedione or thione and 3-(1,2-benzisothiazol- and isoxazol-5-y1)-4(3H)-pyrimidinone or thione herbicidal agents” (BASF AKTIENGESELLSCHAFT, priority 1997, dated 1999).
# Experiments:
# [1] = tested on: Monochoria vaginalis, Presl.; experiment: Preemergence weed control under flooded paddy conditions, MOOVA (Monochoria); type: in vivo; details: flooded paddy, rated three to four weeks after treatment; as to herbicidal effect rating, MOOVA: meaning of each grade not given here
# [2] = tested on: Echinochloa oryzoides (Ard.) Fritsch.; experiment: Preemergence weed control under flooded paddy conditions, ECHORC (Watergrass (Calif.)); type: in vivo; details: flooded paddy, rated three to four weeks after treatment; as to herbicidal effect rating, ECHORC: meaning of each grade not given here
# [3] = tested on: Oryza sativa, (L.) Tebonnet; experiment: Rice tolerance to post-transplant applications under flooded paddy conditions (Example 187), ORYSAT (Rice, Tebonnet); details: rated three to four weeks after treatment; as to herbicidal effect rating ORYSAT: meaning of each grade not given here
# [4] = tested on: Cyperus iria; experiment: Preemergence weed control under flooded paddy conditions, CYPIR (Rice Flatsedge); type: in vivo; details: flooded paddy, rated three to four weeks after treatment; as to herbicidal effect rating, CYPIR: meaning of each grade not given here
# [5] = tested on: Cyperus serotinus, Rottb.; experiment: Preemergence weed control under flooded paddy conditions, CYPSE (Flatsedge); type: in vivo; details: rated three to four weeks after treatment; as to herbicidal effect rating, CYPSE: meaning of each grade not given here
# [6] = tested on: Sagittaria pygmaea, L.; experiment: Preemergence weed control under flooded paddy conditions, SAGPY (Arrowhead (Pygmaea)); type: in vivo; details: flooded paddy, rated three to four weeks after treatment; as to herbicidal effect rating, SAGPY: meaning of each grade not given here
# [7] = Rate 0.0320 kg/ha, preemergence
# [8] = Rate 0.0620 kg/ha, preemergence
# [9] = Rate 0.1250 kg/ha, preemergence
# [10] = Rate 0.2500 kg/ha, preemergence
# [11] = 0.0313 kg/ha, preemergence weeds
# [12] = 0.0625 kg/ha, preemergence weeds
# [13] = 0.1250 kg/ha, preemergence weeds
# [14] = 0.2500 kg/ha, preemergence weeds
structure (smiles),measurement,setting,value
"CN(C(=O)c1nsc2ccc(-n3c(=O)cc(C(F)(F)F)n(C)c3=O)cc12)S(C)(=O)=O [Example 367, 1,2-Benzisothiazole-3-carboxamide, 5-[3,6-dihydro-3-methyl-2,6-dioxo-4-(trifluoromethyl)-1(2H)-pyrimidinyl]-N-methyl-N-(methylsulfonyl)-]","herbicidal effect rating, MOOVA",[1]; [7],9.0
same,"herbicidal effect rating, MOOVA",[1]; [8],9.0
same,"herbicidal effect rating, MOOVA",[1]; [9],9.0
same,"herbicidal effect rating, MOOVA",[1]; [10],9.0
same,"herbicidal effect rating, ECHORC",[2]; [7],0.0
same,"herbicidal effect rating, ECHORC",[2]; [8],0.0
same,"herbicidal effect rating, ECHORC",[2]; [9],3.0
same,"herbicidal effect rating, ECHORC",[2]; [10],6.0
same,herbicidal effect rating ORYSAT,[3]; Rate 0.0320 kg/ha,0.0
same,herbicidal effect rating ORYSAT,[3]; Rate 0.0620 kg/ha,0.0
same,herbicidal effect rating ORYSAT,[3]; Rate 0.1250 kg/ha,5.0
same,herbicidal effect rating ORYSAT,[3]; Rate 0.2500 kg/ha,6.0
same,"herbicidal effect rating, CYPIR",[4]; [7],0.0
same,"herbicidal effect rating, CYPIR",[4]; [8],5.0
same,"herbicidal effect rating, CYPIR",[4]; [9],7.0
same,"herbicidal effect rating, CYPIR",[4]; [10],9.0
same,"herbicidal effect rating, CYPSE",[5]; [7],0.0
same,"herbicidal effect rating, CYPSE",[5]; [8],9.0
same,"herbicidal effect rating, CYPSE",[5]; [9],9.0
same,"herbicidal effect rating, CYPSE",[5]; [10],9.0
same,"herbicidal effect rating, SAGPY",[6]; [7],0.0
same,"herbicidal effect rating, SAGPY",[6]; [8],2.0
same,"herbicidal effect rating, SAGPY",[6]; [9],5.0
same,"herbicidal effect rating, SAGPY",[6]; [10],9.0
"C=CCOc1ccc(C)cc1-c1nsc2ccc(-n3c(=O)cc(C(F)(F)F)n(C)c3=O)cc12 [Example 65, 3-{3-[6-(Allyloxy)-m-tolyl]-1,2-benzisothiazol-5-yl}-1-methyl-6-(trifluoromethyl)-2,4(1H,3H)-pyrimidinedione]","herbicidal effect rating, MOOVA","[1]; 0.0313 kg/ha, preemergence",0.0
same,"herbicidal effect rating, MOOVA","[1]; 0.0625 kg/ha, preemergence",0.0
same,"herbicidal effect rating, MOOVA","[1]; 0.1250 kg/ha, preemergence",0.0
same,"herbicidal effect rating, MOOVA","[1]; 0.2500 kg/ha, preemergence",0.0
same,"herbicidal effect rating, ECHORC","[2]; 0.0313 kg/ha, preemergence",0.0
same,"herbicidal effect rating, ECHORC","[2]; 0.0625 kg/ha, preemergence",0.0
same,"herbicidal effect rating, ECHORC","[2]; 0.1250 kg/ha, preemergence",0.0
same,"herbicidal effect rating, ECHORC","[2]; 0.2500 kg/ha, preemergence",0.0
same,"herbicidal effect rating, ORYSAT (rice tolerance)",[3]; 0.0313 kg/ha,0.0
same,"herbicidal effect rating, ORYSAT (rice tolerance)",[3]; 0.0625 kg/ha,0.0
same,"herbicidal effect rating, ORYSAT (rice tolerance)",[3]; 0.1250 kg/ha,0.0
same,"herbicidal effect rating, ORYSAT (rice tolerance)",[3]; 0.2500 kg/ha,0.0
same,"herbicidal effect rating, CYPIR","[4]; 0.0313 kg/ha, preemergence",0.0
same,"herbicidal effect rating, CYPIR","[4]; 0.0625 kg/ha, preemergence",0.0
same,"herbicidal effect rating, CYPIR","[4]; 0.1250 kg/ha, preemergence",0.0
same,"herbicidal effect rating, CYPIR","[4]; 0.2500 kg/ha, preemergence",0.0
same,"herbicidal effect rating, CYPSE","[5]; 0.0313 kg/ha, preemergence",0.0
same,"herbicidal effect rating, CYPSE","[5]; 0.0625 kg/ha, preemergence",0.0
same,"herbicidal effect rating, CYPSE","[5]; 0.1250 kg/ha, preemergence",0.0
same,"herbicidal effect rating, CYPSE","[5]; 0.2500 kg/ha, preemergence",0.0
same,"herbicidal effect rating, SAGPY","[6]; 0.0313 kg/ha, preemergence",0.0
same,"herbicidal effect rating, SAGPY","[6]; 0.0625 kg/ha, preemergence",0.0
same,"herbicidal effect rating, SAGPY","[6]; 0.1250 kg/ha, preemergence",0.0
same,"herbicidal effect rating, SAGPY","[6]; 0.2500 kg/ha, preemergence",0.0
"Cn1c(C(F)(F)F)cc(=O)n(-c2ccc3snc(COCCCl)c3c2)c1=O [Example 198, 3-{3-[(2-Chloroethoxy)methyl]-1,2-benzisothiazol-5-yl}-1-methyl-6-(trifluoromethyl)-2,4(1H,3H)-pyrimidinedione]","herbicidal effect rating, MOOVA",[1]; [11],9.0
same,"herbicidal effect rating, MOOVA",[1]; [12],9.0
same,"herbicidal effect rating, MOOVA",[1]; [13],9.0
same,"herbicidal effect rating, MOOVA",[1]; [14],9.0
same,"herbicidal effect rating, ECHORC",[2]; [11],4.0
same,"herbicidal effect rating, ECHORC",[2]; [12],6.0
same,"herbicidal effect rating, ECHORC",[2]; [13],9.0
same,"herbicidal effect rating, ECHORC",[2]; [14],9.0
same,"herbicidal effect rating, ORYSAT (rice tolerance)",[3]; 0.0313 kg/ha,4.0
same,"herbicidal effect rating, ORYSAT (rice tolerance)",[3]; 0.0625 kg/ha,7.0
same,"herbicidal effect rating, ORYSAT (rice tolerance)",[3]; 0.1250 kg/ha,8.0
same,"herbicidal effect rating, ORYSAT (rice tolerance)",[3]; 0.2500 kg/ha,9.0
same,"herbicidal effect rating, CYPIR",[4]; [11],0.0
same,"herbicidal effect rating, CYPIR",[4]; [12],2.0
same,"herbicidal effect rating, CYPIR",[4]; [13],4.0
same,"herbicidal effect rating, CYPIR",[4]; [14],7.0
same,"herbicidal effect rating, CYPSE",[5]; [11],0.0
same,"herbicidal effect rating, CYPSE",[5]; [12],2.0
same,"herbicidal effect rating, CYPSE",[5]; [13],4.0
same,"herbicidal effect rating, CYPSE",[5]; [14],8.0
same,"herbicidal effect rating, SAGPY",[6]; [11],0.0
same,"herbicidal effect rating, SAGPY",[6]; [12],0.0
same,"herbicidal effect rating, SAGPY",[6]; [13],2.0
same,"herbicidal effect rating, SAGPY",[6]; [14],4.0
"COC(=O)COc1ccc(-c2nsc3ccc(-n4c(=O)cc(C(F)(F)F)n(C)c4=O)cc23)cc1 [Example 257, Acetic acid, {p-{5-[3,6-dihydro-3-methyl-2,6-dioxo-4-(trifluoromethyl)-1(2H)-pyrimidinyl)-1,2-benzisothiazol-3-yl}phenoxy}-, methyl ester]",MOOVA herbicidal effect rating,[1]; [7],8.0
same,MOOVA herbicidal effect rating,[1]; [8],9.0
same,MOOVA herbicidal effect rating,[1]; [9],9.0
same,MOOVA herbicidal effect rating,[1]; [10],9.0
same,ECHORC herbicidal effect rating,[2]; [7],0.0
same,ECHORC herbicidal effect rating,[2]; [8],0.0
same,ECHORC herbicidal effect rating,[2]; [9],0.0
same,ECHORC herbicidal effect rating,[2]; [10],0.0
same,ORYSAT herbicidal effect rating,[3]; Rate 0.0320 kg/ha,0.0
same,ORYSAT herbicidal effect rating,[3]; Rate 0.0620 kg/ha,0.0
same,ORYSAT herbicidal effect rating,[3]; Rate 0.1250 kg/ha,1.0
same,ORYSAT herbicidal effect rating,[3]; Rate 0.2500 kg/ha,2.0
same,CYPIR herbicidal effect rating,[4]; [7],0.0
same,CYPIR herbicidal effect rating,[4]; [8],2.0
same,CYPIR herbicidal effect rating,[4]; [9],4.0
same,CYPIR herbicidal effect rating,[4]; [10],6.0
same,CYPSE herbicidal effect rating,[5]; [7],0.0
same,CYPSE herbicidal effect rating,[5]; [8],0.0
same,SAGPY herbicidal effect rating,[6]; [7],0.0
same,SAGPY herbicidal effect rating,[6]; [8],0.0
same,SAGPY herbicidal effect rating,[6]; [9],0.0
same,SAGPY herbicidal effect rating,[6]; [10],0.0
"COC(=O)C(C)Oc1ccccc1Oc1noc2ccc(-n3c(=O)cc(C(F)(F)F)n(C)c3=O)cc12 (stereo not shown) [Example 47, Methyl 2-{o-{{5-[3,6-dihydro-3-methyl-2,6-dioxo-4-(trifluoromethyl)-1(2H)-pyrimidinyl]-1,2-benzisoxazol-3-yl}oxy}phenoxy}propionate]","herbicidal effect rating, MOOVA","[1]; 0.0313 kg/ha, preemergence",4.5
same,"herbicidal effect rating, MOOVA","[1]; 0.0625 kg/ha, preemergence",4.5
same,"herbicidal effect rating, MOOVA","[1]; 0.1250 kg/ha, preemergence",5.5
same,"herbicidal effect rating, MOOVA","[1]; 0.2500 kg/ha, preemergence",9.0
same,"herbicidal effect rating, ECHORC","[2]; 0.0313 kg/ha, preemergence",0.0
same,"herbicidal effect rating, ECHORC","[2]; 0.0625 kg/ha, preemergence",1.5
same,"herbicidal effect rating, ECHORC","[2]; 0.1250 kg/ha, preemergence",3.5
same,"herbicidal effect rating, ECHORC","[2]; 0.2500 kg/ha, preemergence",5.0
same,"herbicidal effect rating, ORYSAT (rice tolerance)",[3]; 0.0313 kg/ha,1.5
same,"herbicidal effect rating, ORYSAT (rice tolerance)",[3]; 0.0625 kg/ha,2.5
same,"herbicidal effect rating, ORYSAT (rice tolerance)",[3]; 0.1250 kg/ha,4.0
same,"herbicidal effect rating, ORYSAT (rice tolerance)",[3]; 0.2500 kg/ha,6.0
same,"herbicidal effect rating, CYPIR","[4]; 0.0313 kg/ha, preemergence",0.0
same,"herbicidal effect rating, CYPIR","[4]; 0.0625 kg/ha, preemergence",0.0
same,"herbicidal effect rating, CYPIR","[4]; 0.1250 kg/ha, preemergence",0.0
same,"herbicidal effect rating, CYPIR","[4]; 0.2500 kg/ha, preemergence",1.0
same,"herbicidal effect rating, CYPSE","[5]; 0.0313 kg/ha, preemergence",0.0
same,"herbicidal effect rating, CYPSE","[5]; 0.0625 kg/ha, preemergence",0.0
same,"herbicidal effect rating, CYPSE","[5]; 0.1250 kg/ha, preemergence",1.0
same,"herbicidal effect rating, CYPSE","[5]; 0.2500 kg/ha, preemergence",2.0
same,"herbicidal effect rating, SAGPY","[6]; 0.0313 kg/ha, preemergence",0.0
same,"herbicidal effect rating, SAGPY","[6]; 0.0625 kg/ha, preemergence",0.0
same,"herbicidal effect rating, SAGPY","[6]; 0.1250 kg/ha, preemergence",0.0
same,"herbicidal effect rating, SAGPY","[6]; 0.2500 kg/ha, preemergence",0.0
"Cn1c(C(F)(F)F)cc(=O)n(-c2ccc3snc(C(=O)NCC(=O)O)c3c2)c1=O [Example 579, Glycine, N-{{5-[3,6-dihydro-3-methyl-2,6-dioxo-4-(trifluoromethyl)-1(2H)-pyrimidinyl]-1,2-benzisothiazol-3-yl}carbonyl}-]","herbicidal effect rating, MOOVA",[1]; [7],6.0
same,"herbicidal effect rating, MOOVA",[1]; [8],7.0
same,"herbicidal effect rating, MOOVA",[1]; [9],7.0
same,"herbicidal effect rating, MOOVA",[1]; [10],9.0
same,"herbicidal effect rating, ECHORC",[2]; [7],2.0
same,"herbicidal effect rating, ECHORC",[2]; [8],4.0
same,"herbicidal effect rating, ECHORC",[2]; [9],4.0
same,"herbicidal effect rating, ECHORC",[2]; [10],5.0
same,herbicidal effect rating ORYSAT,[3]; Rate 0.0320 kg/ha,0.0
same,herbicidal effect rating ORYSAT,[3]; Rate 0.0620 kg/ha,2.0
same,herbicidal effect rating ORYSAT,[3]; Rate 0.1250 kg/ha,3.0
same,herbicidal effect rating ORYSAT,[3]; Rate 0.2500 kg/ha,3.0
same,"herbicidal effect rating, CYPIR",[4]; [7],0.0
same,"herbicidal effect rating, CYPIR",[4]; [8],0.0
same,"herbicidal effect rating, CYPIR",[4]; [9],4.0
same,"herbicidal effect rating, CYPIR",[4]; [10],6.0
same,"herbicidal effect rating, CYPSE",[5]; [7],0.0
same,"herbicidal effect rating, CYPSE",[5]; [8],0.0
same,"herbicidal effect rating, CYPSE",[5]; [9],0.0
same,"herbicidal effect rating, CYPSE",[5]; [10],0.0
same,"herbicidal effect rating, SAGPY",[6]; [7],0.0
same,"herbicidal effect rating, SAGPY",[6]; [8],0.0
same,"herbicidal effect rating, SAGPY",[6]; [9],0.0
same,"herbicidal effect rating, SAGPY",[6]; [10],2.0
